This is an account of results in patent US5412125A, “Dipeptidic amides derived from glycyl-serine as surfactants or hydrating agents and cosmetic, pharmaceutical or alimentary compositions containing the same” (L'Oreal, priority 1991, dated 1995).

SMILES strings stand for the structures. Where a SMILES comes first, the peptide text is derived from it. The star is where a group is joined. Lauroyl = CCCCCCCCCCCC(=O)*

A short description of the data set: Foaming power study (brush-developed foam in graduated cylinder). Format: physicochemical. As to conditions: 5% aqueous solution (weight/volume), 5 ml with 6 mg natural feminine sebum; after 180 sec stirring. As to the method: The test consists in developing the foam using a brush made of natural hog bristles (length=[…]) displaced in a plexiglass graduated cylindrical container (inside diameter=35 mm). This container is driven in a uniform circular motion which is the reverse of that described by the brush. This permits a good distribution of the foam in the graduated container despite the small amounts developed. (brush speed=100 rpm, container speed=10 rpm). The procedure is carried out using 5 ml of each solution studied to which has been added 6 mg of natural feminine sebum. The foam heights are recorded after one, two and three minutes of stirring.

In the case of `CCCCCCCCCCCC(=O)NCC(=O)NCC(=O)[O-].[Na+]` [compound A, sodium salt of N-dodecanoyl-glycyl-glycine] (Lauroyl-Gly-Gly-OH), the “Foam Height (cm) at the end of a time of 180 sec” value turned out to be 20 cm.
